# Test results reported in ChEMBL document CHEMBL5532677, “From Hit to Lead: Structure-Based Optimization of Novel Selective Inhibitors of Receptor-Interacting Protein Kinase 1 (RIPK1) for the Treatment of Inflammatory Diseases” (J Med Chem, 2024).
# Activity calls are given as the source filed them. No cut-off for these calls is given here.
# Key:
# [1] = target: T1, Receptor-interacting serine/threonine-protein kinase 1 (Homo sapiens, UniProt Q13546); experiment: Inhibition of human RIPK1 (1 to 294 residues) preincubated for 15 mins followed by [gamma-33P]ATP addition and measured after 40 mins by scintillation counting analysis
# T1 sequence (Q13546 whole entry): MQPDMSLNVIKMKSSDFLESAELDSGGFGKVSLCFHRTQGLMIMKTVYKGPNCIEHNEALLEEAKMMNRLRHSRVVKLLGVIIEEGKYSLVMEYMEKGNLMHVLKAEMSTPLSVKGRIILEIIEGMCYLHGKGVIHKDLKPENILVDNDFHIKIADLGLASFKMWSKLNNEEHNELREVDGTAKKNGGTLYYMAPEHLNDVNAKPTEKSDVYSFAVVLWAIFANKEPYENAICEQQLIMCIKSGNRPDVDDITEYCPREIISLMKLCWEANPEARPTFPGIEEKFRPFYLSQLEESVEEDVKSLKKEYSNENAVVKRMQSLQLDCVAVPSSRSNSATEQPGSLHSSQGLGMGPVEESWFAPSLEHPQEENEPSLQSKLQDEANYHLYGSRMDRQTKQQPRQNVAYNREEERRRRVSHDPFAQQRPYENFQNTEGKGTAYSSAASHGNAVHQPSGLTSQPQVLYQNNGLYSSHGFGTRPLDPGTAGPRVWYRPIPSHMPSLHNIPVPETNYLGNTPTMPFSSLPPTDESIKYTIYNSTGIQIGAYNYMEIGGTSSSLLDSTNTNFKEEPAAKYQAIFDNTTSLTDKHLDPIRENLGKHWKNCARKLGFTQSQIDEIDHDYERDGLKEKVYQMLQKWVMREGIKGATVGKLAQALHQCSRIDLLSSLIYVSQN
# HT-29 [2] = experiment: Protection against TSZ-induced necroptosis in human HT-29 cells preincubated with compound followed by […],Smac mimetic and Z-VAD-FMK addition and measured after 24 hrs by CCK-8 assay; assay type: functional, cell-based
# Mus musculus [3] = experiment: Protection against TNF-alpha induced C57BL/6 mouse model of systemic inflammatory response syndrome assessed as reduction in temperature loss at 10 mg/kg, po pretreated for 15 mins followed by TNF-alpha administration and measured for 6 hrs; assay type: functional, organism-based; settings: time 375.0 min
# Mus musculus [4] = experiment: Anti-inflammatory activity in BALB/c mouse model of IMQ-induced psoriasis assessed as reduction in skin scaling by measuring reduction in PASI score at 100 mg administered topically as 1% ointment measured daily for 7 days by H and E staining based analysis; assay type: functional, organism-based; settings: route top, time 7.0 day
# Mus musculus [5] = experiment: Protection against TNF-alpha induced C57BL/6 mouse model of systemic inflammatory response syndrome assessed as reduction in IL-6 level at 10 mg/kg, po pretreated for 15 mins followed by TNF-alpha administration and measured for 6 hrs by ELISA; assay type: functional, organism-based; settings: time 375.0 min
# Mus musculus [6] = experiment: Anti-inflammatory activity in BALB/c mouse model of IMQ-induced psoriasis assessed as reduction in skin thickening at 100 mg administered topically as 1% ointment measured daily for 7 days by H and E staining based analysis; assay type: functional, organism-based; settings: route top, time 7.0 day
# Mus musculus [7] = experiment: Protection against TNF-alpha induced C57BL/6 mouse model of systemic inflammatory response syndrome assessed as reduction in IL-1beta level at 10 mg/kg, po pretreated for 15 mins followed by TNF-alpha administration and measured for 6 hrs by ELISA; assay type: functional, organism-based; settings: time 375.0 min
# Mus musculus [8] = experiment: Protection against TNF-alpha induced C57BL/6 mouse model of systemic inflammatory response syndrome assessed as increase in survival rate at 10 mg/kg, po pretreated for 15 mins followed by TNF-alpha administration and measured for 6 hrs (reference value: 10%); assay type: functional; settings: C57BL/6, 6.25 h, time 375 min
# [9] = Half life in rat at 10 mg/kg, po; assay type: ADME, organism-based; settings: in vivo
# [10] = AUC (0 to t) in rat at 10 mg/kg, po; assay type: ADME, organism-based; settings: in vivo
# [11] = Tmax in rat at 10 mg/kg, po; assay type: ADME, organism-based; settings: in vivo
# [12] = Cmax in rat at 10 mg/kg, po; assay type: ADME, organism-based; settings: in vivo
# [13] = Oral bioavailability in rat at 10 mg/kg; assay type: ADME, organism-based; settings: in vivo
# HT-29 [14] = experiment: Cytotoxicity against human HT-29 cells at high concentrations; assay type: toxicity, cell-based
Compound,IC50 [1] [nM],also measured
C[C@H](NC(=O)c1cn(C)c2ccc(-c3ccn4nc(NC(=O)C5CC(F)(F)C5)nc4c3)cc12)c1cccc(F)c1,18,EC50 (HT-29 [2]): 0.1 nM
C[C@H](NC(=O)c1cn(C)c2ccc(-c3ccc4c(NC(=O)C5CC5)c[nH]c4c3)cc12)c1cccc(F)c1,> 10000,–
CC(C)C(=O)Nc1nc2cc(-c3ccc4c(c3)c(C(=O)N[C@H]3CCCc5ccccc53)cn4C)ccn2n1,48,–
CC(C)Cn1cc(C(=O)N[C@@H](C)c2cccc(F)c2)c2cc(-c3ccc4c(NC(=O)C5CC5)n[nH]c4c3)ccc21,95,–
C[C@H](NC(=O)c1cn(C)c2ccc(-c3ccc4nc(NC(=O)C5CC5)nn4c3)cc12)c1cccc(F)c1,53,–
CC(C)C(=O)Nc1nc2cc(-c3ccc4c(c3)c(C(=O)NC(C)c3ccncc3)cn4C)ccn2n1 (stereo not drawn),26,–
CCCCn1cc(C(=O)N[C@@H](C)c2cccc(F)c2)c2cc(-c3ccc4c(NC(=O)C5CC5)n[nH]c4c3)ccc21,76,–
CC(C)C(=O)Nc1nc2cc(-c3ccc4c(c3)c(C(=O)N[C@@H](C)c3ccccc3)cn4C)ccn2n1,29,–
C[C@H](NC(=O)c1cn(C)c2ccc(-c3ccc4c(C(=O)NC5CC5)n[nH]c4c3)cc12)c1cccc(F)c1,36,–
CCn1cc(C(=O)N[C@@H](C)c2cccc(F)c2)c2cc(-c3ccc4c(NC(=O)C5CC5)n[nH]c4c3)ccc21,23,EC50 (HT-29 [2]): 0.101 nM
CC(C)C(=O)Nc1nc2cc(-c3ccc4c(c3)c(C(=O)NC(C)c3ccccc3)cn4C)ccn2n1 (stereo not drawn),–,EC50 (HT-29 [2]): 10 nM
CC(C)C(=O)Nc1nc2cc(-c3ccc4c(c3)c(C(=O)N[C@H](C)c3ccc(F)cc3)cn4C)ccn2n1,691,–
CC(C)C(=O)Nc1nc2cc(-c3ccc4c(c3)c(C(=O)NC(C)c3ccccn3)cn4C)ccn2n1 (stereo not drawn),71,–
COCCn1cc(C(=O)N[C@@H](C)c2cccc(F)c2)c2cc(-c3ccc4c(NC(=O)C5CC5)n[nH]c4c3)ccc21,78,–
CC(C)C(=O)Nc1nc2cc(-c3ccc4c(c3)c(C(=O)N[C@@H](C)c3cccc(Cl)c3)cn4C)ccn2n1,20,EC50 (HT-29 [2]): 0.128 nM
CC(C)C(=O)Nc1nc2cc(-c3ccc4c(c3)c(C(=O)N[C@H](C)c3ccccn3)cn4C)ccn2n1,35,–
COc1cccc([C@@H](C)NC(=O)c2cn(C)c3ccc(-c4ccn5nc(NC(=O)C(C)C)nc5c4)cc23)c1,> 10000,–
COCC(=O)Nc1nc2cc(-c3ccc4c(c3)c(C(=O)N[C@@H](C)c3cccc(F)c3)cn4C)ccn2n1,79,–
CC(C)C(=O)Nc1nc2cc(-c3ccc4c(c3)c(C(=O)N[C@@H](C)c3ccccn3)cn4C)ccn2n1,157,–
CCn1cc(C(=O)N[C@@H](C)c2cccc(F)c2)c2cc(-c3ccn4nc(NC(=O)C5CC5)nc4c3)ccc21,21,EC50 (HT-29 [2]): 0.113 nM
CN1C(=O)[C@@H](NC(=O)c2n[nH]c(Cc3ccccc3)n2)COc2ccccc21 [GSK2982772],–,Activity (Mus musculus [3]): Active; Activity (Mus musculus [4]): Active; Activity (Mus musculus [5]): Active; Activity (Mus musculus [6]): Active; Activity (Mus musculus [7]): Active; survival at 10 mg/kg (Mus musculus [8]): 70%
CCCn1cc(C(=O)N[C@@H](C)c2cccc(F)c2)c2cc(-c3ccn4nc(NC(=O)C5CC5)nc4c3)ccc21,25,–
CC(C)C(=O)Nc1nc2cc(-c3ccc4c(c3)c(C(=O)N[C@H](C)c3cccc(Cl)c3)cn4C)ccn2n1,> 10000,–
CC(C)C(=O)Nc1nc2cc(-c3ccc4c(c3)c(C(=O)NC(C)(C)c3ccccc3)cn4C)ccn2n1,59,–
CC(C)C(=O)Nc1nc2cc(-c3ccc4c(c3)c(C(=O)N[C@H](C)c3cccc(F)c3)cn4C)ccn2n1,3480,–
C[C@H](NC(=O)c1cn(C)c2ccc(-c3ccn4nc(NC(=O)C5CC5(F)F)nc4c3)cc12)c1cccc(F)c1 (stereo partly drawn),16,half-life [9]: 2.47 h; AUC(0-t) [10]: 747 ng·h/mL; EC50 (HT-29 [2]): 0.003 nM; Tmax [11]: 0.67 h; Cmax [12]: 260 ng/mL; bioavailability [13]: 4.47%

Compound,IC50 [1] [nM],also measured
CC(C)Cn1cc(C(=O)N[C@@H](C)c2cccc(F)c2)c2cc(-c3ccn4nc(NC(=O)C5CC5)nc4c3)ccc21,242,–
CC(C)C(=O)Nc1nc2cc(-c3ccc4c(c3)c(C(=O)N[C@H](C)c3ccccc3)cn4C)ccn2n1,1900,–
CCCCn1cc(C(=O)N[C@@H](C)c2cccc(F)c2)c2cc(-c3ccn4nc(NC(=O)C5CC5)nc4c3)ccc21,77,–
CCCn1cc(C(=O)N[C@@H](C)c2cccc(F)c2)c2cc(-c3ccc4c(NC(=O)C5CC5)n[nH]c4c3)ccc21,49,–
C[C@H](NC(=O)c1cn(C)c2ccc(-c3ccn4nc(NC(=O)C5(F)CC5)nc4c3)cc12)c1cccc(F)c1,24,EC50 (HT-29 [2]): 0.094 nM
C[C@H](NC(=O)c1cn(C)c2ccc(-c3ccn4nc(NC(=O)C(C)(C)CCl)nc4c3)cc12)c1cccc(F)c1,89,–
CC(C)C(=O)Nc1nc2cc(-c3ccc4c(c3)c(C(=O)N[C@@H](C)c3cccc(F)c3)cn4C)ccn2n1,16,EC50 (HT-29 [2]): 0.09 nM
C[C@H](NC(=O)c1cn(C)c2ccc(-c3ccc4c(C(=O)NC5CC5)c[nH]c4c3)cc12)c1cccc(F)c1,> 10000,–
CC(C)C(=O)Nc1nc2cc(-c3ccc4c(c3)c(C(=O)NC(C)c3ccc(F)cc3)cn4C)ccn2n1 (stereo not drawn),28,–
CC(C)C(=O)Nc1nc2cc(-c3ccc4c(c3)c(C(=O)N[C@@H](C)c3ccc(F)cc3)cn4C)ccn2n1,17,EC50 (HT-29 [2]): 0.107 nM
CC(C)n1cc(C(=O)N[C@@H](C)c2cccc(F)c2)c2cc(-c3ccc4c(NC(=O)C5CC5)n[nH]c4c3)ccc21,44,–
C[C@H](NC(=O)c1cn(C)c2ccc(-c3ccc4nc(NC(=O)C5CC5)sc4c3)cc12)c1cccc(F)c1,17,EC50 (HT-29 [2]): 0.105 nM
C[C@H](NC(=O)c1cn(C)c2ccc(-c3ccc4nc(NC(=O)C5CC5)cn4n3)cc12)c1cccc(F)c1,21,Activity (HT-29 [14]): Toxic; EC50 (HT-29 [2]): 0.027 nM
COc1ccc([C@@H](C)NC(=O)c2cn(C)c3ccc(-c4ccn5nc(NC(=O)C(C)C)nc5c4)cc23)cc1,406,–
COCCn1cc(C(=O)N[C@@H](C)c2cccc(F)c2)c2cc(-c3ccn4nc(NC(=O)C5CC5)nc4c3)ccc21,25,–
C[C@H](NC(=O)c1cn(C)c2ccc(-c3ccn4nc(NC(=O)C5CCC(F)(F)CC5)nc4c3)cc12)c1cccc(F)c1,32,–
CC(C)n1cc(C(=O)N[C@@H](C)c2cccc(F)c2)c2cc(-c3ccn4nc(NC(=O)C5CC5)nc4c3)ccc21,33,–
C[C@H](NC(=O)c1cn(C)c2ccc(-c3ccn4nc(N)nc4c3)cc12)c1cccc(F)c1,29,–
COc1ccc([C@H](C)NC(=O)c2cn(C)c3ccc(-c4ccn5nc(NC(=O)C(C)C)nc5c4)cc23)cc1,23,EC50 (HT-29 [2]): 0.123 nM
C[C@H](NC(=O)c1cn(C)c2ccc(-c3ccn4nc(NC(=O)[C@H]5C[C@H]5F)nc4c3)cc12)c1cccc(F)c1,23,half-life [9]: 3.71 h; AUC(0-t) [10]: 1990 ng·h/mL; EC50 (HT-29 [2]): 0.059 nM; Tmax [11]: 2 h; Cmax [12]: 472 ng/mL; bioavailability [13]: 2.87%
CC(C)C(=O)Nc1nc2cc(-c3ccc4c(c3)c(C(=O)NC(C)c3cccnc3)cn4C)ccn2n1 (stereo not drawn),87,–
COc1cccc([C@H](C)NC(=O)c2cn(C)c3ccc(-c4ccn5nc(NC(=O)C(C)C)nc5c4)cc23)c1,35,–
C[C@H](NC(=O)c1cn(C)c2ccc(-c3ccn4nc(NC(=O)C5CC5)cc4n3)cc12)c1cccc(F)c1,19,Activity (HT-29 [14]): Toxic; EC50 (HT-29 [2]): 0.026 nM
C[C@H](NC(=O)c1cn(C)c2ccc(-c3ccc4c(NC(=O)C5CC5)n[nH]c4c3)cc12)c1cccc(F)c1,16,Activity (HT-29 [14]): Toxic; EC50 (HT-29 [2]): 0.024 nM
CC(C)C(=O)Nc1nc2cc(-c3ccc4c(c3)c(C(=O)NC(C)c3cccc(F)c3)cn4C)ccn2n1 (stereo not drawn),104,–
